Test results from BigSolDB 2.1.

SMILES: O=C(O)CCCC(=O)O
- solubility (mole fraction) (in acetic acid, 292.75 K): 0.162
- solubility (mole fraction) (in acetic acid, 297.84 K): 0.183
- solubility (mole fraction) (in acetic acid, 301.3 K): 0.203
- solubility (mole fraction) (in acetic acid, 304.47 K): 0.221
- solubility (mole fraction) (in acetic acid, 307.28 K): 0.241
- solubility (mole fraction) (in acetic acid, 310.19 K): 0.257
- solubility (mole fraction) (in acetic acid, 313.64 K): 0.28
- solubility (mole fraction) (in acetic acid, 316.5 K): 0.302
- solubility (mole fraction) (in acetic acid, 319.05 K): 0.323
- solubility (mole fraction) (in acetic acid, 321.38 K): 0.345
- solubility (mole fraction) (in acetic acid, 325.45 K): 0.373
- solubility (mole fraction) (in acetic acid, 327.38 K): 0.399
- solubility (mole fraction) (in acetic acid, 332.97 K): 0.436
- solubility (mole fraction) (in acetic acid, 335.25 K): 0.478
- solubility (mole fraction) (in acetic acid, 338.05 K): 0.514
- solubility (mole fraction) (in acetic acid, 341.94 K): 0.553
- solubility (mole fraction) (in acetic acid, 344.21 K): 0.585
- solubility (mole fraction) (in acetic acid, 347.24 K): 0.621
- solubility (mole fraction) (in acetic acid, 349.88 K): 0.651
- solubility (mole fraction) (in acetic acid, 353.36 K): 0.712
- solubility (mole fraction) (in cyclohexanol, 299.75 K): 0.205
- solubility (mole fraction) (in cyclohexanol, 302.7 K): 0.219
- solubility (mole fraction) (in cyclohexanol, 305.85 K): 0.234
- solubility (mole fraction) (in cyclohexanol, 308.6 K): 0.25
- solubility (mole fraction) (in cyclohexanol, 313.19 K): 0.271
- solubility (mole fraction) (in cyclohexanol, 316 K): 0.288
- solubility (mole fraction) (in cyclohexanol, 318.55 K): 0.312
- solubility (mole fraction) (in cyclohexanol, 320.55 K): 0.33
- solubility (mole fraction) (in cyclohexanol, 325.15 K): 0.366
- solubility (mole fraction) (in cyclohexanol, 326.5 K): 0.371
- solubility (mole fraction) (in cyclohexanol, 332.55 K): 0.428
- solubility (mole fraction) (in cyclohexanol, 334.9 K): 0.455
- solubility (mole fraction) (in cyclohexanol, 336.3 K): 0.477
- solubility (mole fraction) (in cyclohexanol, 339.75 K): 0.511
- solubility (mole fraction) (in cyclohexanol, 342.15 K): 0.545
- solubility (mole fraction) (in cyclohexanol, 344.8 K): 0.571
- solubility (mole fraction) (in cyclohexanol, 347.19 K): 0.622
- solubility (mole fraction) (in cyclohexanol, 350.05 K): 0.66
- solubility (mole fraction) (in cyclohexanol, 351.93 K): 0.693
- solubility (mole fraction) (in cyclohexanol, 352.48 K): 0.719
- solubility (mole fraction) (in cyclohexanol, 352.95 K): 0.748
- solubility (mole fraction) (in cyclohexanone, 294 K): 0.161
- solubility (mole fraction) (in cyclohexanone, 299.7 K): 0.189
- solubility (mole fraction) (in cyclohexanone, 304.5 K): 0.213
- solubility (mole fraction) (in cyclohexanone, 308.05 K): 0.241
- solubility (mole fraction) (in cyclohexanone, 311.94 K): 0.264
- solubility (mole fraction) (in cyclohexanone, 314.15 K): 0.283
- solubility (mole fraction) (in cyclohexanone, 317.54 K): 0.307
- solubility (mole fraction) (in cyclohexanone, 320.3 K): 0.334
- solubility (mole fraction) (in cyclohexanone, 325.05 K): 0.366
- solubility (mole fraction) (in cyclohexanone, 326.95 K): 0.392
- solubility (mole fraction) (in cyclohexanone, 330.5 K): 0.428
- solubility (mole fraction) (in cyclohexanone, 333.81 K): 0.458
- solubility (mole fraction) (in cyclohexanone, 335.23 K): 0.478
- solubility (mole fraction) (in cyclohexanone, 338.35 K): 0.513
- solubility (mole fraction) (in cyclohexanone, 342.65 K): 0.557
- solubility (mole fraction) (in cyclohexanone, 346.8 K): 0.598
- solubility (mole fraction) (in cyclohexanone, 347.65 K): 0.627
- solubility (mole fraction) (in cyclohexanone, 349.7 K): 0.655
- solubility (mole fraction) (in cyclohexanone, 351.5 K): 0.679
- solubility (mole fraction) (in cyclohexanone, 353.65 K): 0.705
